Experimental data taken from US5151414A, “Phenoxyethyl amine compounds active on the cardiovascular system” (SIMES Societa Italiana Medicinali e Sintetici S.p.A., priority 1987, dated 1992).

How the values were obtained:
[1] = molecular target: dopaminergic receptor (isolated membranes of rat striated muscle); assay: receptor binding test, dopaminergic "in vitro" receptor affinity on isolated membranes of rat striated muscle
Source text: (§1) Furthermore, the compounds of formula I show a remarkable dopaminergic activity in addition to an α1 -antagonistic effect. The dopaminergic activity has been evaluated by receptor binding tests as "in vitro" receptor affinity on isolated membranes of rat striated muscle and by pharmacological tests as "in vitro" inhibition of the answer to electric stimulation of cat right atrium.

[2] = tested on: dopaminergic activity, cat right atrium; assay: "in vitro" inhibition of the answer to electric stimulation of cat right atrium (dopaminergic activity); assay type: biochemical
Source text: as §1

[3] = molecular target: α1 receptor (rat cerebral cortex); assay: α1 receptor binding on rat cerebral cortex
Source text: (§2) The α1 -antagonistic activity has been evaluated as receptor binding on rat cerebral cortex and as antagonism to contraction induced by phenylephrine (α1 -agonist) on rabbit aorta.

α1 (rabbit aorta) = assay: antagonism to contraction induced by phenylephrine (α1-agonist) on rabbit aorta; assay type: biochemical
Source text: as §2

[4] = effects on systemic arterial pressure, heart rate and vascular resistances in anesthetized dog, intravenous route; assay type: in vivo
Experimental: In fact, the compounds object of the present invention reduce meaningfully systemic arterial pressure after administration by intravenous route in anesthetized dog (see example 11). The compound N-[2-(2,6-dichlorophenoxy)-ethyl]-N-propyl-2-amino-5,6-dihydroxy-1,2,3,4-tetrahydronaphthalene hydrochloride (Compound A) was tested by intravenous route in anesthetized dog in order to evaluate the effects on systemic arterial pressure. Compound A, administered by intravenous route at the doses of 10 and 20 μg/kg, reduced systemic arterial pressure as well as peripheral resistances and particularly femoral resistances, the last reduction being associated also with an increase of the corresponding haematic flow.

IC50 [1]: 251 nM
IC50 [2]: 8500 nM
IC50 [3]: 76 nM
Compound: CCCN(CCOc1c(Cl)cccc1Cl)C1CCc2c(ccc(O)c2O)C1.Cl (stereo not drawn) [Compound A, N-[2-(2,6-dichlorophenoxy)-ethyl]-N-propyl-2-amino-5,6-dihydroxy-1,2,3,4-tetrahydronaphthalene hydrochloride]
pA2 (rabbit aorta) (α1 (rabbit aorta)): 7.42
Renal resistances ([4]; 10 μg/kg iv, basal 1.007 + 0.186): 0.871 ± 0.162 mmHg/ml/min
Femoral resistances ([4]; 10 μg/kg iv, basal 2.471 + 0.260): 1.802 ± 0.471 mmHg/ml/min
a. femoral flow ([4]; 10 μg/kg iv, basal 54.1 + 3.8): 67.4 ± 12.4 mL/min
Arterial pressure Mn ([4]; 10 μg/kg iv, basal 118 + 5): 102 ± 8 mmHg
Arterial pressure Md ([4]; 10 μg/kg iv, basal 136 + 4): 119 ± 7 mmHg
a. renal flow ([4]; 10 μg/kg iv, basal 143.7 + 23.7): 144.7 ± 20.6 mL/min
Heart rate ([4]; 10 μg/kg iv, basal 152 + 11): 161 ± 12 beats/min
Arterial pressure Mx ([4]; 10 μg/kg iv, basal 160 + 10): 145 ± 8 mmHg
Renal resistances ([4]; 20 μg/kg iv, basal 1.246 + 0.389): 1.082 ± 0.367 mmHg/ml/min
Femoral resistances ([4]; 20 μg/kg iv, basal 2.445 + 0.787): 1.274 ± 0.171 mmHg/ml/min
a. femoral flow ([4]; 20 μg/kg iv, basal 65.6 + 20.0): 87.8 ± 20.0 mL/min
Arterial pressure Mn ([4]; 20 μg/kg iv, basal 118 + 9): 96 ± 11 mmHg
a. renal flow ([4]; 20 μg/kg iv, basal 129.9 + 31.8): 128.9 ± 31.3 mL/min
Arterial pressure Md ([4]; 20 μg/kg iv, basal 132 + 8): 109 ± 9 mmHg
Heart rate ([4]; 20 μg/kg iv, basal 136 + 13): 146 ± 17 beats/min
Arterial pressure Mx ([4]; 20 μg/kg iv, basal 148 + 8): 124 ± 9 mmHg
femoral resistances (in words) ([4]; intravenous, 10 and 20 μg/kg): reduced
haematic flow, femoral (in words) ([4]; intravenous, 10 and 20 μg/kg): increase
peripheral resistances (in words) ([4]; intravenous, 10 and 20 μg/kg): reduced
systemic arterial pressure (in words) ([4]; intravenous, 10 and 20 μg/kg): reduced
